The values below are quoted from earlier work in paper PMC2912446 (ACS chemical biology, 2010).

The data set concerns GPR30. The conditions noted are these: read-out: GPR30 binding affinity; parent small molecules.

Structures are written as SMILES.

Take `CC(=O)c1ccc2c(c1)[C@@H]1C=CC[C@@H]1[C@H](c1cc3c(cc1Br)OCO3)N2` [G-1]: the IC50 was around 11 nM.

As for `Brc1cc2c(cc1[C@@H]1Nc3ccccc3[C@@H]3C=CC[C@@H]31)OCO2` [G15], the IC50 is […].
